The target of the test is T1, β-glucuronidase enzyme (Escherichia coli, UniProt P05804).
T1 construct: purchased Sigma Aldrich G7396-25KU
The test is described as follows: β-Glucuronidase inhibition assay (spectrophotometric, p-nitrophenyl-β-D-glucuronide). Format: biochemical. The method, then: β-Glucuronidase inhibitory activity was determined with the help of spectrophotometric method by measuring the absorbance at 405 nm of p-nitrophenol formed from the substrate (p-nitrophenyl-β-D-glucuronide, N1627-250 mg, Sigma Aldrich). The total reaction volume was 250 μL. The compound dissolved in DMSO (100%), which becomes 2% in the ultimate assay (250 μL) and the similar conditions were used for standard (D-saccharic acid 1, 4-lactone, Sigma Aldrich). The reaction mixture contained 185 μL of 0.1 M acetate buffer, 5 μL of test compound solution, 10 μL of (1U) enzyme solution (G7396-25KU, Sigma Aldrich) was incubated at 37°C for 30 min. The plates were read on a multiplate reader (SpectraMax plus 384) at 405 nm after the addition of 50 μL of 0.4 mM p-nitrophenyl-β-D-glucuronide. All assays were performed in triplicate. IC50values were calculated by using EZ-Fit software (Perrella Scientific Inc., Amherst, MA, U.S.A.). These values are the mean of three independent readings^ [23]

The source of these data is article PMC6281186, “Bioinformatics: A rational combine approach used for the identification and in-vitro activity evaluation of potent β-Glucuronidase inhibitors” (PLoS ONE, 2018).

The term % Inhibition denotes the percentage by which the read-out fell short of the control. Higher therefore signals a strong effect. One may read the IC50 as the concentration that gives 50% inhibition.

SMILES strings stand for the structures.

T1 sequence (P05804 whole entry): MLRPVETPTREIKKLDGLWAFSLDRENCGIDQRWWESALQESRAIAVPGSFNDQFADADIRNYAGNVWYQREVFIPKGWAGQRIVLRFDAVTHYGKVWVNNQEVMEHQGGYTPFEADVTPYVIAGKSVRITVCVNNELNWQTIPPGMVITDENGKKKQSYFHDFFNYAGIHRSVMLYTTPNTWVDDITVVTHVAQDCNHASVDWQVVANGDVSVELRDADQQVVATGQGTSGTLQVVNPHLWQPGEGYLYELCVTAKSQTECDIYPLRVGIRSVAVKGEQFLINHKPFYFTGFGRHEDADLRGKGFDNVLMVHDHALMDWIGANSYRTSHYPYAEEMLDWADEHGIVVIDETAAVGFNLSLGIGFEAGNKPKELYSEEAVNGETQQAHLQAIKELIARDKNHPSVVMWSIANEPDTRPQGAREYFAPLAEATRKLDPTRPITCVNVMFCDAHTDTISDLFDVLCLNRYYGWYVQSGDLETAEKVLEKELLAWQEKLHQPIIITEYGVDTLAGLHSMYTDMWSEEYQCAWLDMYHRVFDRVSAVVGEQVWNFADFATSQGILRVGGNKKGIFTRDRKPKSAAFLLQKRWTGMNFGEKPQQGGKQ

In the case of `O=C1OC(C(O)C(=O)O)C(O)C1O` [D-saccharic acid 1,4-lactone], under “Conc. 200 μM”, the “% Inhibition” value is 89.4%. Moreover, the IC50 (β-glucuronidase inhibition, mean of three readings, read-out: IC50 μM±SEM) was 45.8 ± 2.16 µM.
